Source: patent US20070060558A1 (PALUMED S.A., priority 2004, published 2007)
Values after ≈ are worked out from the molar mass of the structure shown. Where two headings read alike, the source gives them in different places.

Key:
[1] = test system: Staphylococcus aureus MSSA CIP 4.83; assay: Antibacterial activity (MIC/MBC); assay type: cell-based; conditions: for MBC: read-out: MBC
[2] = test system: S. pneumoniae PSSP CIP 6.92; assay: Antibacterial activity (MIC/MBC); assay type: cell-based; conditions: Streptococcus pneumoniae, CIP6
[3] = test system: S. pneumoniae PRSP CIP 104471; assay: Antibacterial activity (MIC/MBC); assay type: cell-based, Streptococcus pneumoniae; conditions: Streptococcus pneumoniae; for MIC: read-out: MIC
[4] = test system: S. pneumoniae PRSP clinical isolate; assay: Antibacterial activity (MIC/MBC); assay type: cell-based, Streptococcus pneumoniae; conditions: Streptococcus pneumoniae; for MIC: PRSP
S. pyogenes CIP 56.41T = assay: Antibacterial activity (MIC/MBC); assay type: cell-based, Streptococcus pyogenes; conditions: Streptococcus pyogenes, CIP56, S. pyogenes CIP 56.41T; for MIC: read-out: MIC
[5] = test system: E. faecalis VRE CIP 104676; assay: Antibacterial activity (MIC/MBC); assay type: cell-based, Enterococcus faecalis; conditions: Enterococcus faecalis, E. faecalis VRE CIP 104676
H. influenzae CIP 102514 = assay: Antibacterial activity (MIC/MBC); assay type: cell-based, Haemophilus influenzae; conditions: Haemophilus influenzae, CIP102514
M. catarrhalis CIP73.21T = assay: Antibacterial activity (MIC/MBC); assay type: cell-based; conditions: Moraxella catarrhalis
[6] = test system: Staphylococcus aureus MSSA 53.154; assay: Murine experimental septicaemia, in vivo efficacy; design: species or system mice; conditions: sc, mice, subcutaneously at 1 and 6 h post infection, survival on day 9, hybrid molecules formulated in water as their sodium salt, read-out: ED50
Procedure: Experimental septicaemia was induced in mice as follows. Briefly, male Swiss OF1 mice (IFFA CREDO-Charles River) weighing 18 to 20 grams were infected intraperitoneally with 0.5 mL of a bacterial suspension containing 8.5×10^7 cfu of Staphylococcus aureus MSSA 53.154 (Institut Pasteur). The hybrid molecules were administered subcutaneously at 1 and 6 h post infection. Control and treatment groups at each dose were composed of seven mice. All the infected but untreated control mice died within 9 days. The 50% effective dose (ED50) values were calculated by a computerized program (GraphPad) from the survival rates on day 9 after infection.

Oral toxicity in mice = assay type: in vivo; conditions: counted on day 30
Procedure: The test compound: PA 1046 (example 5) was emulsified in a mixture of Tween 80/methylcellulose in water (0.5% of Tween 80, 0.6% of methylcellulose and 98.9% of water) at different concentrations. The emulsion was administered orally to 6-week-old female Swiss CD1 mice (Janvier) on day 0 and on day 2. The number of survival mice was counted on day 30.

[7] = test system: Human lung fibroblast cells (ATCC CCL-171); assay: Cytotoxicity (MTT) assay; conditions: human, 18 hr
Procedure: Cellular toxicity was measured by a colorimetric assay that makes use of the tetrazolium salt, MTT. Human lung fibroblast cells (ATCC CCL-171) were plated in 96-well plates at 10^4 cells per well and incubated under 5% CO2 at 37° C. for 24 hr to allow adherence of cells to the plate. Test compounds were prepared as a stock solution at 1 mg/mL in 1% DMSO/water and diluted with water for the serial dilutions (500-7.8 μg/mL). Cells underwent a 18 hr treatment under 5% CO2 at 37° C. with experimental drugs. Corresponding controls received either no drug treatment or treatment with SDS (sodium dodecyl sulfate). The optical density of each sample was read on a microplate spectrophotometer reader at 600 nm and cell survival was expressed as a fraction of that of untreated controls. A drug is said cytotoxic when this fraction is ≦−30%

[8] = Stability in solution at pH 1 (HPLC purity over time); assay type: physicochemical; conditions: for Purity of the hybrid molecules (as a percentage) as a function of time (hours): pH 1, 37° C.
Procedure: The stability of the aminoquinoline-cephalosporin_hybrid molecules given as examples was determined in solution at 37° C., at physiological pH (pH 7, phosphate buffer/acetonitrile, 75/25 v/v) and at acidic pH (pH 1, 0.1 M HCl/ethanol, 70/30 v/v) by high pressure liquid chromatography coupled to a UV-visible detector (Beckman Coulter ODS C18 column, 5 μm, 4.6×250 mm; eluents: A: 0.1% TFA, B: CH3CN/H2O 90/10 0.1% TFA, gradient: from 10% to 100% of B in 30 minutes, and then 100% of B for 10 minutes, flow rate 1 mL/minutes, λ=254 nm, volume injected: 10 μL).

[9] = test system: two strains of penicillin-resistant Streptococcus pneumoniae PRSP (CIP 104471 and a clinical isolate); assay: Antibacterial activity (MIC/MBC), summary in text; assay type: cell-based; conditions: S. pneumoniae PRSP (CIP 104471 and a clinical isolate)
[10] = S. aureus CIP 4.83, without serum (Table VI)
[11] = Staphylococcus aureus, S. aureus CIP 4.83, +50% human serum, read-out: MIC in the presence of human serum
[12] = Staphylococcus aureus, S. aureus MSSA CIP 4.83
[13] = Staphylococcus aureus, S. aureus MSSA CIP 4.83, read-out: MIC
[14] = +50% human serum, read-out: MIC in the presence of human serum
[15] = without serum (Table VI), read-out: MIC

SMILES	MIC [1, 10] [µg/mL]	MIC [1, 11] [µg/mL]	MBC [1, 12] [µg/mL]	MIC [1, 13] [µg/mL]	MBC [2] [µg/mL]	MIC [2] [µg/mL]	MBC [3] [µg/mL]	MIC [3] [µg/mL]	MBC [4] [µg/mL]	MIC [4, 14] [µg/mL]	MIC ([4]; read-out: MIC) [µg/mL]	MIC [4, 15] [µg/mL]	MBC (S. pyogenes CIP 56.41T) [µg/mL]	MIC (S. pyogenes CIP 56.41T) [µg/mL]	MBC [5] [µg/mL]	MBC (M. catarrhalis CIP73.21T) [µg/mL]	MIC (M. catarrhalis CIP73.21T) [µg/mL]	ED50 [6] [mg/kg]	further results
CC(=O)OCC1=C(C(=O)O)N2C(=O)[C@@H](NC(=O)CNc3ccnc4cc(Cl)ccc34)[C@H]2SC1 [PA 1046, (6R,7R)-3-Acetoxymethyl-7-[2-(7-chloroquinolin-4-ylamino)-acetylamino]-8-oxo-5-thia-1-aza-bicyclo[4.2.0]oct-2-ene-2-carboxylic acid]	0.2 (≈ 0.407 µM)	0.78	> 50	0.2 (≈ 0.407 µM)	0.012 (≈ 0.0244 µM)	0.012 (≈ 0.0244 µM)	0.025 (≈ 0.0509 µM)	0.006 (≈ 0.0122 µM)	0.1 (≈ 0.204 µM)	1.56	0.05 (≈ 0.102 µM)	0.2 (≈ 0.407 µM)	0.003 (≈ 0.00611 µM)	0.003 (≈ 0.00611 µM)	50 (≈ 102 µM)	0.78 (≈ 1.59 µM)	0.78 (≈ 1.59 µM)	0.04	MBC (H. influenzae CIP 102514): 25 µg/mL (≈ 50.9 µM); Survival (%) (Oral toxicity in mice; 100 mg/kg orally on day 0 and day 2, mice): 5/5 (100%); Survival (%) (Oral toxicity in mice; 200 mg/kg orally on day 0 and day 2, mice): 5/5 (100%); % of survival cells compared to the untreated controls ([7]; 7.8 μg/mL): −5.6%; % of survival cells compared to the untreated controls ([7]; 15.6 μg/mL): −8.3%; % of survival cells compared to the untreated controls ([7]; 31.2 μg/mL): −5.6%; % of survival cells compared to the untreated controls ([7]; 62.5 μg/mL): −9.0%; % of survival cells compared to the untreated controls ([7]; 125 μg/mL): −14.1%; % of survival cells compared to the untreated controls ([7]; 250 μg/mL): −17.8%; % of survival cells compared to the untreated controls ([7]; 500 μg/mL): −18.1%
CO/N=C(\C(=O)N[C@@H]1C(=O)N2C(C(=O)O)=C(CSc3nc(=O)c(=O)[nH]n3C)CS[C@H]12)c1csc(N)n1 [Ceftriaxone, reference compound]	0.20 (≈ 0.361 µM)	25	> 50	0.2 (≈ 0.361 µM)	0.006 (≈ 0.0108 µM)	0.006 (≈ 0.0108 µM)	0.39 (≈ 0.703 µM)	0.05 (≈ 0.0902 µM)	0.78 (≈ 1.41 µM)	12.5	0.39 (≈ 0.703 µM)	0.78 (≈ 1.41 µM)	0.006 (≈ 0.0108 µM)	0.006 (≈ 0.0108 µM)	50 (≈ 90.2 µM)	0.0015 (≈ 0.0027 µM)	< 0.01	0.09	half-life ([8]; 0.1 M HCl/ethanol solution, pH 1 in solution at 37° C.): < 2 h; Purity of the hybrid molecules (as a percentage) as a function of time (hours) ([8]; time 0 h): 100%; Purity of the hybrid molecules (as a percentage) as a function of time (hours) ([8]; time 1 h): 67%; Purity of the hybrid molecules (as a percentage) as a function of time (hours) ([8]; time 2 h): 46%; Purity of the hybrid molecules (as a percentage) as a function of time (hours) ([8]; time 4 h): 21%; Purity of the hybrid molecules (as a percentage) as a function of time (hours) ([8]; time 6 h): 4%; time until practically totally degraded ([8]; pH 1 in solution at 37° C.): less than 6 hr; MIC ([5]; read-out: MIC): 1.56 µg/mL (≈ 2.81 µM); MBC (H. influenzae CIP 102514; H. influenzae CIP 102514, read-out: MBC): 1.56 µg/mL (≈ 2.81 µM); MIC (H. influenzae CIP 102514; H. influenzae CIP 102514, read-out: MIC): < 0.001 µg/mL; MIC [9]: 0.05 µg/mL (≈ 0.0902 µM)
